Results as given in PubChem BioAssay AID1259407 (Chemical Carcinogenesis Research Information System (CCRIS), 2018).
Entries after “also recorded” stand apart in the source; their conditions may differ. Calls of active or inactive are those of the source. The rule behind the calls is not given here.

Test system: CCRIS mutagenicity, Ames/micronucleus/aberration tests
Test: CCRIS mutagenicity studies
[1] = Test System: AMES SALMONELLA TYPHIMURIUM, Strain/Indicator: TA98, Metabolic Activation: NONE, Method: STANDARD PLATE
[2] = Test System: AMES SALMONELLA TYPHIMURIUM, Strain/Indicator: TA100, Metabolic Activation: NONE, Method: PREINCUBATION
[3] = Test System: AMES SALMONELLA TYPHIMURIUM, Strain/Indicator: TA100, Metabolic Activation: NONE, Method: STANDARD PLATE

With `O=C(O)/C=C/c1ccccc1` the mutagenic call (Test System: AMES SALMONELLA TYPHIMURIUM, Strain/Indicator: TA98, Metabolic Activation: HAMSTER, LIVER, S-9, AROCLOR 1254 (2.5-20%), Method: PREINCUBATION) was “inactive; negative”, the mutagenic call (Test System: AMES SALMONELLA TYPHIMURIUM, Strain/Indicator: TA98, Metabolic Activation: HAMSTER, LIVER, S-9, AROCLOR 1254, Method: STANDARD PLATE) was “inactive; negative” and the mutagenic call [1] was “inactive; negative”. The mutagenic call (Test System: AMES SALMONELLA TYPHIMURIUM, Strain/Indicator: TA98, Metabolic Activation: RAT, LIVER, S-9, AROCLOR 1254, Method: STANDARD PLATE) was “inactive; negative”, the mutagenic call (Test System: AMES SALMONELLA TYPHIMURIUM, Strain/Indicator: TA100, Metabolic Activation: HAMSTER, LIVER, S-9, AROCLOR 1254 (2.5-20%), Method: PREINCUBATION) was “inactive; negative” and the mutagenic call (Test System: AMES SALMONELLA TYPHIMURIUM, Strain/Indicator: TA100, Metabolic Activation: HAMSTER, LIVER, S-9, AROCLOR 1254, Method: STANDARD PLATE) was “inactive; negative”. For the same compound, the mutagenic call [2] was “inactive; negative”, the mutagenic call [3] was “inactive; negative” and the mutagenic call (Test System: AMES SALMONELLA TYPHIMURIUM, Strain/Indicator: TA100, Metabolic Activation: RAT, LIVER, S-9, AROCLOR 1254, Method: PREINCUBATION) was “inactive; negative”. For the same compound, the mutagenic call (Test System: AMES SALMONELLA TYPHIMURIUM, Strain/Indicator: TA100, Metabolic Activation: RAT, LIVER, S-9, AROCLOR 1254, Method: STANDARD PLATE) was “inactive; negative”, the mutagenic call (Test System: AMES SALMONELLA TYPHIMURIUM, Strain/Indicator: TA102, Metabolic Activation: HAMSTER, LIVER, S-9, AROCLOR 1254, Method: PREINCUBATION) was “inactive; negative” and the mutagenic call (Test System: AMES SALMONELLA TYPHIMURIUM, Strain/Indicator: TA102, Metabolic Activation: NONE, Method: PREINCUBATION) was “inactive; negative”. For the same compound, the mutagenic call (Test System: AMES SALMONELLA TYPHIMURIUM, Strain/Indicator: TA102, Metabolic Activation: RAT, LIVER, S-9, AROCLOR 1254, Method: PREINCUBATION) was “inactive; negative”, the mutagenic call (Test System: AMES SALMONELLA TYPHIMURIUM, Strain/Indicator: TA1535, Metabolic Activation: HAMSTER, LIVER, S-9, AROCLOR 1254, Method: STANDARD PLATE) was “inactive; negative” and the mutagenic call (Test System: AMES SALMONELLA TYPHIMURIUM, Strain/Indicator: TA1535, Metabolic Activation: NONE, Method: STANDARD PLATE) was “inactive; negative”. The mutagenic call (Test System: AMES SALMONELLA TYPHIMURIUM, Strain/Indicator: TA1535, Metabolic Activation: RAT, LIVER, S-9, AROCLOR 1254, Method: STANDARD PLATE) was “inactive; negative”, the mutagenic call (Test System: AMES SALMONELLA TYPHIMURIUM, Strain/Indicator: TA1537, Metabolic Activation: HAMSTER, LIVER, S-9, AROCLOR 1254, Method: STANDARD PLATE) was “inactive; negative” and the mutagenic call (Test System: AMES SALMONELLA TYPHIMURIUM, Strain/Indicator: TA1537, Metabolic Activation: NONE, Method: STANDARD PLATE) was “inactive; negative”. For the same compound, the mutagenic call (Test System: AMES SALMONELLA TYPHIMURIUM, Strain/Indicator: TA1537, Metabolic Activation: RAT, LIVER, S-9, AROCLOR 1254, Method: STANDARD PLATE) was “inactive; negative”, the mutagenic call (Test System: AMES SALMONELLA TYPHIMURIUM, Strain/Indicator: TA1538, Metabolic Activation: HAMSTER, LIVER, S-9, AROCLOR 1254, Method: STANDARD PLATE) was “inactive; negative” and the mutagenic call (Test System: AMES SALMONELLA TYPHIMURIUM, Strain/Indicator: TA1538, Metabolic Activation: NONE, Method: STANDARD PLATE) was “inactive; negative”. For the same compound, the mutagenic call (Test System: AMES SALMONELLA TYPHIMURIUM, Strain/Indicator: TA1538, Metabolic Activation: RAT, LIVER, S-9, AROCLOR 1254, Method: STANDARD PLATE) was “inactive; negative”, the mutagenic call (Test System: MOUSE LYMPHOMA, Strain/Indicator: L5178Y (TK+/TK-), Metabolic Activation: NONE, Method: SUSPENSION/PLATE) was “active; positive. reevaluation of results: equivocal” and the mutagenic call (Test System: Mouse lymphoma, Strain/Indicator: L5178Y (tk+/tk-), Metabolic Activation: Rat, Liver, S-9, Aroclor 1254, Method: Suspension/plate) was “inactive; negative”.
In the case of `O=c1n(CC2CO2)c(=O)n(CC2CO2)c(=O)n1CC1CO1` (configuration not stated), the mutagenic call (End Point: IN VITRO CHROMOSOMAL ABERRATIONS, Test System: CHINESE HAMSTER LUNG CELLS (CHL), Metabolic Activation: NONE) is reported as “active; positive (structural changes)”, the mutagenic call (End Point: IN VITRO CHROMOSOMAL ABERRATIONS, Test System: CHINESE HAMSTER LUNG CELLS (CHL), Metabolic Activation: RAT, LIVER, S-9, KC-400) is reported as “inactive; negative” and the mutagenic call (End Point: IN VITRO CHROMOSOMAL ABERRATIONS, Test System: CHINESE HAMSTER OVARY CELLS (CHO), Metabolic Activation: NONE) is reported as “active; positive (structural changes)”. For the same compound, the mutagenic call (End Point: IN VITRO CHROMOSOMAL ABERRATIONS, Test System: CHINESE HAMSTER OVARY CELLS (CHO), Metabolic Activation: RAT, LIVER, S-9, AROCLOR 1254) was “active; positive (structural changes)”, the mutagenic call (End Point: IN VITRO CHROMOSOMAL ABERRATIONS, Test System: CHL CELLS, Metabolic Activation: RAT, LIVER, S-9, SODIUM PHENOBARBITAL AND 5,6-BENZOFLAVONE) was “active; positive (structural changes)” and the mutagenic call (End Point: IN VITRO CHROMOSOMAL ABERRATIONS, Test System: CHL CELLS, Metabolic Activation: S-9) was “active; positive; interlaboratory comparison between 2 labs; all reported positive resul; also recorded: active; positive (structural changes); interlaboratory comparison between 2 labs; both r”. For the same compound, the mutagenic call (End Point: IN VITRO CHROMOSOMAL ABERRATIONS, Test System: CHO CELLS, Metabolic Activation: S-9) was “active; positive (structural changes); interlaboratory comparison between 2 labs; both r; also recorded: active; positive; interlaboratory comparison among 3 labs; all reported positive results”, the mutagenic call (End Point: IN VITRO CHROMOSOMAL ABERRATIONS, Test System: CHO-LB CELLS, Metabolic Activation: NONE) was “active; positive” and the mutagenic call (End Point: IN VITRO CHROMOSOMAL ABERRATIONS, Test System: CHO-LB CELLS, Metabolic Activation: RAT, LIVER, S-9, AROCLOR 1254) was “active; positive”. For the same compound, the mutagenic call (Test System: AMES SALMONELLA TYPHIMURIUM, Strain/Indicator: TA98, Metabolic Activation: HAMSTER, LIVER, S-9, AROCLOR 1254 (30%), Method: PREINCUBATION) was “active; positive”, the mutagenic call (Test System: AMES SALMONELLA TYPHIMURIUM, Strain/Indicator: TA98, Metabolic Activation: NONE, Method: PREINCUBATION) was “active; positive” and the mutagenic call (Test System: AMES SALMONELLA TYPHIMURIUM, Strain/Indicator: TA98, Metabolic Activation: RAT LIVER S-9, PHENOBARBITAL AND BETA-NAPHTHOFLAVONE, Method: PREINCUBATION) was “active; positive”. The mutagenic call (Test System: AMES SALMONELLA TYPHIMURIUM, Strain/Indicator: TA98, Metabolic Activation: RAT, LIVER, S-9, AROCLOR 1254 (30%), Method: PREINCUBATION) was “active; positive”, the mutagenic call (Test System: AMES SALMONELLA TYPHIMURIUM, Strain/Indicator: TA100, Metabolic Activation: HAMSTER, LIVER, S-9, AROCLOR 1254 (30%), Method: PREINCUBATION) was “active; positive” and the mutagenic call [2] was “active; positive”. For the same compound, the mutagenic call (Test System: AMES SALMONELLA TYPHIMURIUM, Strain/Indicator: TA100, Metabolic Activation: RAT LIVER S-9, PHENOBARBITAL AND BETA-NAPHTHOFLAVONE, Method: PREINCUBATION) was “active; positive”, the mutagenic call (Test System: AMES SALMONELLA TYPHIMURIUM, Strain/Indicator: TA100, Metabolic Activation: RAT, LIVER, S-9, AROCLOR 1254 (30%), Method: PREINCUBATION) was “active; positive” and the mutagenic call (Test System: AMES SALMONELLA TYPHIMURIUM, Strain/Indicator: TA1535, Metabolic Activation: NONE, Method: PREINCUBATION) was “active; positive”. The mutagenic call (Test System: AMES SALMONELLA TYPHIMURIUM, Strain/Indicator: TA1535, Metabolic Activation: RAT LIVER S-9, PHENOBARBITAL AND BETA-NAPHTHOFLAVONE, Method: PREINCUBATION) was “active; positive”, the mutagenic call (Test System: AMES SALMONELLA TYPHIMURIUM, Strain/Indicator: TA1537, Metabolic Activation: NONE, Method: PREINCUBATION) was “inactive; negative” and the mutagenic call (Test System: AMES SALMONELLA TYPHIMURIUM, Strain/Indicator: TA1537, Metabolic Activation: RAT LIVER S-9, PHENOBARBITAL AND BETA-NAPHTHOFLAVONE, Method: PREINCUBATION) was “inactive; negative”. For the same compound, the mutagenic call (Test System: E.COLI, Strain/Indicator: WP2UVRA, Metabolic Activation: NONE, Method: PREINCUBATION) was “inactive; negative” and the mutagenic call (Test System: E.COLI, Strain/Indicator: WP2UVRA, Metabolic Activation: RAT LIVER S-9, PHENOBARBITAL AND BETA-NAPHTHOFLAVONE, Method: PREINCUBATION) was “inactive; negative”.
`CN=NNc1ccc(C(=O)O)cc1` was tested, and the mutagenic call (Test System: AMES SALMONELLA TYPHIMURIUM, Strain/Indicator: TA92, Metabolic Activation: NONE, Method: STANDARD PLATE) was “active; positive” and the mutagenic call (Test System: E. COLI B, Strain/Indicator: TM9, Metabolic Activation: NONE, Method: STANDARD PLATE) was “active; positive”.
With `Cc1cc(C)cc(OC(=O)N(C)N=O)c1` the mutagenic call (Test System: E. COLI WP2, Strain/Indicator: WP2, Metabolic Activation: NONE, Method: STANDARD PLATE) was “active; positive”.
`CC(=O)OCc1c2ccccc2cc2c1ccc1ccccc12` was tested, and the mutagenic call [1] was “active; positive” and the mutagenic call [3] was “active; positive”.
